Experimental data published in US10940188B2, “Compounds and methods for treatment and prevention of Flavivirus infection” (priority 2016, dated 2021).
Counter-ions that a name gives are not always drawn. Like-named read-outs stand apart in the source and are kept apart here.

Tests used:
[1] = test system: ZIKV-induced caspase 3/7 activity in hNPCs; experiment: Caspase 3/7 activity assay, ZIKV-infected hNPCs; format: cell-based; settings: for IC50: read-out: Caspase 3 (IC50, uM) NPCs; for Emax: read-out: Caspase 3 (efficacy, %) NPCs
Method: (§1) Caspase-Glo 3/7 assay kit (catalog number G8092; Promega, Madison, Wis.) was used to detect caspase 3/7 activity. Reagents were reconstituted as described in the protocol from the manufacturer. Polystyrene plates (384-well and 1536-well; regular tissue culture treated and PDL coated) were purchased from Greiner Bio-One (Monroe, N.C.). Cells were seeded in 384- and 1536-well assay plates and cultured at 37° C. with 5% CO2 for 16 hours. ZIKV solution was added to cells, followed by incubation at 37° C. with 5% CO2 for 6 hours. Caspase-Glo 3/7 was added to each well, unless otherwise specified, and incubated at room temperature for 30 minutes. The luminescence intensity of the assay plates was measured using a ViewLux plate reader (PerkinElmer). Data were normalized by using the cell-containing wells without ZIKV as a negative control (0% induction of caspase 3/7 activity) and wells containing ZIKV infected cells that induced caspase 3/7 activity were used as a positive control (100% induction of caspase 3/7 activity).
Human NPCs were seeded onto PDL coated 1536-well assay plates at 250 cells per 3 μl/well and incubated at 37° C. in 5% CO2 for 16 hours. Test compounds dissolved in DMSO were transferred to assay plates at a volume of 23 nl/well by an automated pintool workstation (Wako Automation, San Diego, Calif.). Compounds were incubated with cells for 30 minutes at 37° C. in 5% CO2, immediately followed by the addition of 2 μl/well of ZIKV. Incubation time of compound-treated cells with ZIKV varied based on assay format. Experiments measuring virus-induced caspase 3/7 activity required a 6 hour incubation of ZIKV in the presence compounds at 37° C. in 5% CO2. Following this incubation, 3.5 μl/well of caspase 3/7 reagent mixture was added to assay plates. The plates were incubated for 30 minutes at room temperature, and the resultant luminescence signal was measured using a ViewLux plate reader (Perkin Elmer). Experiments measuring virus-induced cell death required a 72-hour incubation of ZIKV in the presence of compounds at 37° C. in 5% CO2. Following this incubation, 3.5 μl/well of ATP content detection reagent was added to assay plates, incubated for 30 minutes at the room temperature, and the resultant luminescence signal was measured in a ViewLux plate reader.
(§2) Caspase-Glo 3/7 assay kit (Promega) was used to detect caspase 3/7 activity. Reagents were reconstituted as described in the protocol from the manufacturer. Cells were seeded in 384- and 1536-well assay plates and cultured at 37° C. with 5% CO2 for 16 hours. ZIKV solution was added to cells, followed by incubation at 37° C. with 5% CO2 for 6 hours. Caspase-Glo 3/7 was added to each well at a 1:1 ratio, unless otherwise specified, and incubated at room temperature for 30 minutes. The luminescence intensity of the assay plates was measured using a ViewLux plate reader (PerkinElmer). Data was normalized by using the cell-containing wells without ZIKV as a negative (0% induction of caspase 3/7 activity) control and wells containing ZIKV infected cells that induced caspase 3/7 activity were used as a positive control (100% induction of caspase 3/7 activity).
Human NPCs were seeded onto PDL coated 1536-well assay plates at 250 cells per 3 μl/well and incubated at 37° C. in 5% CO2 for 16 hours. Test compounds dissolved in DMSO were transferred to assay plates at a volume of 23 nl/well by an automated pintool workstation (Wako Automation, San Diego, Calif.). Compounds were incubated with cells for 30 minutes at 37° C. in 5% CO2, immediately followed by the addition of 2 μl/well of ZIKV. Incubation time of compound-treated cells with ZIKV varied based on assay format. Experiments measuring virus induced caspase 3/7 activity required a 6 hour incubation of ZIKV in the presence compounds at 37° C. in 5% CO2. […]

[2] = test system: ZIKV-induced cell death in SNB-19 cells; experiment: ATP cell viability assay for ZIKV-induced cell death, SNB-19 cells; format: cell-based, human; settings: for IC50: Homo sapiens
Method: (§3) The reagent was reconstituted and prepared as described by the manufacturer. In order to measure the cell death caused by ZIKV infection, cells were cultured for 16 hours at 37° C. with 5% CO2 in assay plates, followed by the addition of ZIKV solution and incubation at 37° C. with 5% CO2 for 72 hours. ATPlite, the ATP monitoring reagent, was then added to the assay plates and they were incubated for 15 minutes. The resulting luminescence was measured using the ViewLux plate reader (Perkin Elmer). Data were normalized using the wells without cells as a control for 100% cell killing, and cell-containing wells without ZIKV infection were used as full cell viability (0% cell killing). […]
as §3, with “The ATPlite luminescence assay system assay kit (PerkinElmer) was used to determine cell viability. The reagent” for “The reagent”, “by the manufacture. In order” for “by the manufacturer. In order”, “followed by addition of” for “followed by the addition of”, “plates and incubated for” for “plates and they were incubated for”, “Elmer). Data was normalized using” for “Elmer). Data were normalized using”

[3] = test system: ZIKV-induced cell death in human astrocytes; experiment: ATP cell viability assay for ZIKV-induced cell death, human astrocytes; format: cell-based; settings: for IC50: read-out: Cell viability (IC50, uM) Astrocyte
[4] = test system: ZIKV-induced caspase 3/7 activity in SNB-19 cells; experiment: Caspase 3/7 activity assay, ZIKV-infected SNB-19 cells; format: cell-based
Method: as §1, with “activity). […]” for “activity).”
as §2, with “activity). […]” for “activity).”

[5] = test system: ZIKV-induced caspase 3/7 activity in human astrocytes; experiment: Caspase 3/7 activity assay, ZIKV-infected human astrocytes; format: cell-based; settings: for IC50: read-out: Caspase 3 (IC50, uM) Astrocyte; for Emax: read-out: Caspase 3 (efficacy, %) Astrocyte
Method: as §1, with “activity). […]” for “activity).”
as §2, with “activity). […]” for “activity).”

[6] = Homo sapiens, ZIKV-infected hNPCs
[7] = ZIKV-infected SNB-19 cells, read-out: Cell viability (IC50, uM) SNB-19
[8] = Homo sapiens, ZIKV-infected SNB-19 cells, read-out: Caspase 3 (IC50, uM) SNB-19
[9] = Homo sapiens, ZIKV-infected SNB-19 cells, read-out: Caspase 3 (efficacy, %) SNB-19
[10] = Astrocyte, ZIKV-infected human astrocytes

IC50 [1, 6] [µM] | IC50 [4, 8] [µM] | IC50 [5, 10] [µM] | Molecule | Emax [1, 6] [%] | Cell viability (efficacy, %) SNB-19 ([2]; ZIKV-infected SNB-19 cells) [%] | Cell viability (efficacy, %) Astrocyte ([3]; ZIKV-infected human astrocytes) [%] | Emax [4, 9] [%] | Emax [5, 10] [%] | further results
11.6 | 16.4 | 15.5 | Nc1ccc(/N=N/c2ccccc2)c(N)n1 [Phenazopyridine hydrochloride] | 72.5 | 35.3 | 0.0 | 73.7 | 69.9 | IC50 [2, 7]: 27.5 µM
17.3 | 23.1 | 25.9 | O=c1c(-c2ccc(O)cc2)coc2cc(O[C@@H]3O[C@H](CO)[C@@H](O)[C@H](O)[C@H]3O)cc(O)c12 [Genistin] | 58.6 | 0.0 | 0.0 | 58.1 | 60.2 | 
 |  |  | OCc1ccc(-c2ccc(-c3ccc(CO)s3)o2)s1 [RITA] |  | 0.0 | 81.7 |  |  | Caspase 3 (efficacy, %) NPCs ([1]; ZIKV-infected hNPCs): 50.9%; IC50 ([1]; ZIKV-infected hNPCs): 14.6 µM; IC50 ([3]; ZIKV-infected human astrocytes): 5.81 µM; Caspase 3 (efficacy, %) SNB-19 ([4]; ZIKV-infected SNB-19 cells): 101%; IC50 ([4]; ZIKV-infected SNB-19 cells, read-out: Caspase 3 (IC50, uM) SNB-19): 0.22 µM; Caspase 3 (efficacy, %) Astrocyte ([5]; ZIKV-infected human astrocytes): 41.2%; IC50 ([5]; ZIKV-infected human astrocytes): 27.5 µM
 |  |  | Malachite green oxalate |  |  |  |  |  | Caspase 3 (efficacy, %) NPCs ([1]; ZIKV-infected hNPCs): 62.7%; IC50 ([1]; ZIKV-infected hNPCs): 21.8 µM; Cell viability (efficacy, %) SNB-19 [2]: 0.0%; Cell viability (efficacy, %) Astrocyte [3]: 0.0%; Caspase 3 (efficacy, %) SNB-19 ([4]; ZIKV-infected SNB-19 cells): 0.0%; Caspase 3 (efficacy, %) Astrocyte ([5]; ZIKV-infected human astrocytes): 54.0%; IC50 ([5]; ZIKV-infected human astrocytes): 17.3 µM
 |  |  | COc1cccc2c1C(=O)c1c(O)c3c(c(O)c1C2=O)C[C@@](O)(C(=O)CO)C[C@@H]3O[C@H]1C[C@H](N2CCO[C@H](OC)C2)[C@H](O)[C@H](C)O1 [Nemorubicin] |  | 117 | 146 |  |  | Emax ([1]; Homo sapiens): 82.9%; IC50 ([2]; SNB-19, read-out: Cell viability (IC50, uM) SNB-19): 0.41 µM; IC50 ([3]; Homo sapiens, Astrocyte): 0.87 µM; IC50 ([4]; Homo sapiens, SNB-19, read-out: Caspase 3 (IC50, uM) SNB-19): 30.8 µM; Emax ([4]; Homo sapiens, SNB-19, read-out: Caspase 3 (efficacy, %) SNB-19): 53.1%; IC50 ([5]; Homo sapiens, Astrocyte): 15.5 µM; Emax ([5]; Homo sapiens, Astrocyte): 42.6%
13.8 | 19.5 | 20.6 | O=C(/C=C/C=C/c1ccc2c(c1)OCO2)N1CCCCC1 [Piperine] | 66 | 0.0 | 0.0 | 75.5 | 73.9 | 
1.84 | 2.18 | 3.08 | O=C(/C=C/c1ccc(O)cc1)c1ccc(O)cc1O [Isoliquiritigenin] | 89 | 36.3 | 0.0 | 96.9 | 95.1 | IC50 [2, 7]: 3.08 µM
5.48 | 8.69 | 15.5 | O=c1cc(-c2ccccc2)oc2cc(O)cc(O)c12 [5,7-Dihydroxyflavone] | 51 | 0.0 | 0.0 | 42.7 | 55.1 | 
18.4 | 29.1 |  | O=c1cc(-c2ccccc2)oc2cc(O)c(O)c(O)c12 [Baicalein] | 57.5 | 0.0 | 0.0 | 50.6 | 0 | 
10.9 | 17.3 | 12.3 | COc1cc2nc(N3CCN(C(=O)C4CCCO4)CC3)nc(N)c2cc1OC (centres unmarked) [Terazosin hydrochloride] | 84.4 |  |  | 77.3 | 88.9 | 

Molecule | IC50 [1, 6] [µM] | IC50 [4, 8] [µM] | IC50 [5, 10] [µM] | Emax [1, 6] [%] | Cell viability (efficacy, %) SNB-19 ([2]; ZIKV-infected SNB-19 cells) [%] | Cell viability (efficacy, %) Astrocyte ([3]; ZIKV-infected human astrocytes) [%] | Emax [4, 9] [%] | Emax [5, 10] [%] | further results
O=C(Nc1ccc(Br)cc1)c1cc(Br)cc(Br)c1O [Tribromsalan] | 13.8 | 7.74 | 6.9 | 108 |  |  | 107 | 102 | Cell viability (efficacy, %) SNB-19 [2]: 0.0%; Cell viability (efficacy, %) Astrocyte [3]: 0.0%
COc1cccc2c1C(=O)c1c(O)c3c(c(O)c1C2=O)C[C@@](O)(C(=O)CO)C[C@@H]3O[C@H]1C[C@H](N)[C@H](O[C@@H]2CCCCO2)[C@H](C)O1 [Pirarubicin] |  | 20.6 | 13.8 | 51.5 | 0.0 | 0.0 | 63.9 | 59.8 | 
